One test deals with MraYSA (S. aureus MraY) (Staphylococcus aureus, UniProt Q2FZ93). The experiment in a line: fluorescence assay of dansylated lipid I formation. The class given is biochemical.
The test system of a further test is T1, K. pneumoniae ATCC 13883.
T1 construct: ATCC 13883
Nature of the test: microbe, parasite or virus in culture. Particulars: Klebsiella pneumoniae, ATCC13883. The procedure:
(§1) MICs were determined by a microdilution broth method as recommended by the CLSI with MHB-II. For MICs of stable analogues, a 2-fold dilution of each compound was prepared in DMSO at 100-fold of the final concentration. The strains were inoculated with 5 × 10^5 cfu/mL in 96-well plates (each 100 μL/well), and 1 μL of DMSO solutions of the samples were added (contained less than 1% DMSO). The plates were incubated at 37 °C for 18 h and then MICs were determined. MICs of stable analogues in Table 1 were the highest value in three trials. MICs in Supplementary Table 1 were determined in one trial.  Fig. 2 Results of biological evaluations of hydrazone library. a General structures of hydrazine fragment moiety are shown. Each hydrazine class are represented by different colours (green; BZ, cyan; PA, grey; AC, yellow; AA, orange; LA). b–h MraY inhibitory activity and antibacterial activity of the hydrazone library. The bar graphs show the relative enzyme activity with DMSO as 100% when the compound is treated at given concentration (b,c; TUN at 100 nM, d,e; MRY at 10 nM, f.g; MRD at 100 nM, h; CAP at 1000 nM. n = 1), with the lower bars indicating higher inhibitory activity. The colour of the bars corresponds to Fig. 2a. […] Data of control compounds (van: vancomycin, col: colistin) are shown left column in each panel. E. faecium ATCC 35667, S. aureus ATCC 29213, P. aeruginosa ATCC 27853, K. pneumoniae ATCC 13883, E. cloacae ATCC 13047, A. baumannii ATCC 19606, E. coli ATCC 25922.

The next test concerns T2, A. baumannii ATCC 19606.
T2 construct: ATCC 19606
Nature of the test: microbe, parasite or virus in culture. Particulars: Acinetobacter baumannii, ATCC19606. The procedure: as §1

The subject of the next test is T3, P. aeruginosa ATCC 27853.
T3 construct: ATCC 27853
Nature of the test: microbe, parasite or virus in culture. As to conditions: Pseudomonas aeruginosa, ATCC27853. The protocol: as §1

A further test concerns T4, E. faecium ATCC 35667.
T4 construct: ATCC 35667
The experiment in a line: microbe, parasite or virus in culture. As to conditions: Enterococcus faecium, ATCC35667. The protocol: as §1

A further test relates to T5, E. coli ATCC 25922.
T5 construct: ATCC 25922
The experiment in a line: microbe, parasite or virus in culture. Particulars: Escherichia coli, ATCC25922. The protocol: as §1

The test system of the next test is T6, S. aureus ATCC 29213.
T6 construct: ATCC 29213
The experiment in a line: microbe, parasite or virus in culture. Particulars: Staphylococcus aureus, ATCC29213. The protocol: as §1

The next test relates to T7, E. cloacae ATCC 13047.
T7 construct: ATCC 13047
The experiment in a line: microbe, parasite or virus in culture. As to conditions: Enterobacter cloacae, ATCC13047. The procedure: as §1

≈ marks a conversion by molar mass, not a printed value.

MraYSA (S. aureus MraY), sequence (Q2FZ93 whole entry): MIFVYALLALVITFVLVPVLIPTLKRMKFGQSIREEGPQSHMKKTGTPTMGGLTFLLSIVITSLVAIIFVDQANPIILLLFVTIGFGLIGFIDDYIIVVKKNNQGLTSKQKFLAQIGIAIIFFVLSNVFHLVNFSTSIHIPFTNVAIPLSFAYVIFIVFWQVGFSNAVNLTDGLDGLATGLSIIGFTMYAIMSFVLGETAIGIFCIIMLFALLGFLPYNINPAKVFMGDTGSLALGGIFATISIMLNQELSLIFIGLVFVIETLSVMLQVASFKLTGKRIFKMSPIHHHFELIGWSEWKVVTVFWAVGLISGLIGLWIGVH

Turning to `CC(C)(C)c1ccc(C(=O)N/N=C/c2ccc(CN[C@H](C(=O)O)[C@H](O[C@@H]3O[C@H](CN)[C@@H](O)[C@H]3O)[C@H]3O[C@@H](n4ccc(=O)[nH]c4=O)[C@H](O)[C@@H]3O)cc2)cc1` [MRYp-BZ2], on MraYSA (S. aureus MraY), the IC50 (usually the concentration that gives 50% inhibition) is 2.4 nM.

With `CC[C@H]1OC(=O)[C@H](C)[C@@H](O[C@H]2C[C@@](C)(OC)[C@@H](O)[C@H](C)O2)[C@H](C)[C@@H](O[C@@H]2O[C@H](C)C[C@H](N(C)C)[C@H]2O)[C@](C)(O)C[C@@H](C)CN(C)[C@H](C)[C@@H](O)[C@]1(C)O` [azithromycin], the MIC was 5 µM (≈ 3.74 µg/mL) against K. pneumoniae ATCC 13883; 50 µM (≈ 37.4 µg/mL) against A. baumannii ATCC 19606; 50 µM (≈ 37.4 µg/mL) against P. aeruginosa ATCC 27853; less than 0.5 µM against E. faecium ATCC 35667; 5 µM (≈ 3.74 µg/mL) with E. coli ATCC 25922; 5 µM (≈ 3.74 µg/mL) against S. aureus ATCC 29213. The same compound displayed an MIC with E. cloacae ATCC 13047 of 50 µM (≈ 37.4 µg/mL).

As for `CC[C@H]1OC(=O)[C@H](C)[C@@H](O[C@H]2C[C@@](C)(OC)[C@@H](O)[C@H](C)O2)[C@H](C)[C@@H](O[C@@H]2O[C@H](C)C[C@H](N(C)C)[C@H]2O)[C@](C)(O)C[C@@H](C)C(=O)[C@H](C)[C@@H](O)[C@]1(C)O` [erythromycin], the MIC is more than 50 µM in the test with K. pneumoniae ATCC 13883; 50 µM (≈ 36.7 µg/mL) with A. baumannii ATCC 19606; more than 50 µM against P. aeruginosa ATCC 27853; less than 0.5 µM in the test with E. faecium ATCC 35667; 50 µM (≈ 36.7 µg/mL) in the test on E. coli ATCC 25922; less than 0.5 µM in the test with S. aureus ATCC 29213. The MIC against E. cloacae ATCC 13047 is more than 50 µM.

For `CO[C@H]1/C=C/O[C@@]2(C)Oc3c(C)c(O)c4c(O)c(c(/C=N/N5CCN(C)CC5)c(O)c4c3C2=O)NC(=O)/C(C)=C\C=C\[C@H](C)[C@H](O)[C@@H](C)[C@@H](O)[C@@H](C)[C@H](OC(C)=O)[C@@H]1C` [rifampicin], the MIC in the test on K. pneumoniae ATCC 13883 was 50 µM (≈ 41.1 µg/mL); in the test on A. baumannii ATCC 19606, 5 µM (≈ 4.11 µg/mL); with P. aeruginosa ATCC 27853, 50 µM (≈ 41.1 µg/mL); in the test with E. faecium ATCC 35667, 5 µM (≈ 4.11 µg/mL); against E. coli ATCC 25922, 5 µM (≈ 4.11 µg/mL); with S. aureus ATCC 29213 it was less than 0.5 µM. The MIC in the test with E. cloacae ATCC 13047 amounted to 50 µM (≈ 41.1 µg/mL).

On to `CN[C@@H]1[C@H](O[C@H]2[C@H](O[C@H]3[C@H](O)[C@@H](O)[C@H](N=C(N)N)[C@@H](O)[C@@H]3N=C(N)N)O[C@@H](C)[C@]2(O)C=O)O[C@@H](CO)[C@H](O)[C@H]1O` [streptomycin], for which the MIC was 50 µM (≈ 29.1 µg/mL) against K. pneumoniae ATCC 13883; more than 50 µM in the test on A. baumannii ATCC 19606; 50 µM (≈ 29.1 µg/mL) against P. aeruginosa ATCC 27853; 50 µM (≈ 29.1 µg/mL) with E. faecium ATCC 35667; 50 µM (≈ 29.1 µg/mL) with E. coli ATCC 25922; 50 µM (≈ 29.1 µg/mL) against S. aureus ATCC 29213. In the test with E. cloacae ATCC 13047, this compound showed an MIC of more than 50 µM.
